Source: paper PMC3150619 (Journal of medicinal chemistry, 2011)

Columns and labels:
PARG [1] = target: T1, PARG (Bos taurus, UniProt O02776); assay: PARG assay; assay type: biochemical; details: SAR discussion in text
[2] = test system: PARP activity in SCC-25 cells; assay: NAD assay: NAD; assay type: cell-based; details: pretreated with 1mM compound, MNNG 5μg/mL for 30 minutes (Figure 2C)
[3] = test system: PARG activity in SCC-25 cells; assay: PAR assay: PAR formation/turnover in SCC-25 cells after MNNG; assay type: cell-based
PARG [4] = target: T1, PARG; details: previous study; cited from earlier work
PARP-1 = PARP-1 (Homo sapiens, UniProt P09874); details: previous study; cited from earlier work
Sequence of PARP-1 (P09874 whole entry): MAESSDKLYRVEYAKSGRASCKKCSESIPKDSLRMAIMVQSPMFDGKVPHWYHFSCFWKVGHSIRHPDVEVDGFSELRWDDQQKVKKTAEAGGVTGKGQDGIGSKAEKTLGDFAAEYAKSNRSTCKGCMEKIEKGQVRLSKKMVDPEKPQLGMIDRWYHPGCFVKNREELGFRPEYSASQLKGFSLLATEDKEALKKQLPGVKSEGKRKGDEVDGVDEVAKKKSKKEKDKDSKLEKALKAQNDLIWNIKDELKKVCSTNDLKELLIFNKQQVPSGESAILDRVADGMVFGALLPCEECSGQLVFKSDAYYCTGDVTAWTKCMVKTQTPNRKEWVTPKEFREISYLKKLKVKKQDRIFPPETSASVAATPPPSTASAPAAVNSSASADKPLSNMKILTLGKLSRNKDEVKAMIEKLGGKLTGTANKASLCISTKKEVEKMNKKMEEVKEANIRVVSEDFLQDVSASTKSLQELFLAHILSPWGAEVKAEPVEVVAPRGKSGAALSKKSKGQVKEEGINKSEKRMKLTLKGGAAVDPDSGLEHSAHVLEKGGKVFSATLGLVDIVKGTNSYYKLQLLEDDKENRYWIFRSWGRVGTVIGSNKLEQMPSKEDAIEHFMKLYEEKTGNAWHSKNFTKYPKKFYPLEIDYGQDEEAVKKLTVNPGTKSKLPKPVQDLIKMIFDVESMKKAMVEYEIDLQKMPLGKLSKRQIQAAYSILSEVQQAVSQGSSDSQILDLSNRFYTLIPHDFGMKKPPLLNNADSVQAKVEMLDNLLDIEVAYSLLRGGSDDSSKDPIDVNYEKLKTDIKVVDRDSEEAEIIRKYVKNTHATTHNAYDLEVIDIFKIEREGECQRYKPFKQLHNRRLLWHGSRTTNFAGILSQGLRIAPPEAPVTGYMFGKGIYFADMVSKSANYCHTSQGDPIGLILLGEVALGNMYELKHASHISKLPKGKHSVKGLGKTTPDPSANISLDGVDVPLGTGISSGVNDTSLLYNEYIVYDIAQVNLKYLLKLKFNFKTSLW

T1 sequence (O02776 385-977): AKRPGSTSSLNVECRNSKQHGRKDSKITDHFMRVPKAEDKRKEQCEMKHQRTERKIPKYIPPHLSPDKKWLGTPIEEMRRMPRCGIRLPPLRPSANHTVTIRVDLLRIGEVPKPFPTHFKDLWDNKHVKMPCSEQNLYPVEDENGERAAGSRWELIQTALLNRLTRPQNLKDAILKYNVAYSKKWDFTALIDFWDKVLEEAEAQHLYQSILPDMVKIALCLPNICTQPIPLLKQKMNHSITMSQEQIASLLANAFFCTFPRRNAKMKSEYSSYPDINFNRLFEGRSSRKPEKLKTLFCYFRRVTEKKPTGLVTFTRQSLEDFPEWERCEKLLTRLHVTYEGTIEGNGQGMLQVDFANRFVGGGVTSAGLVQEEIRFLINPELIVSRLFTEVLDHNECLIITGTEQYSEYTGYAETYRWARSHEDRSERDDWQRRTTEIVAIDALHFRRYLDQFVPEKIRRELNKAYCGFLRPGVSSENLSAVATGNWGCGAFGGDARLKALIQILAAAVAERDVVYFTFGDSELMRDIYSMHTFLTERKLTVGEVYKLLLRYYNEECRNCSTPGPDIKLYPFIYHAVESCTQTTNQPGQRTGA

PARG inhibition (in words) (PARG [1])	SMILES	inhibition of NAD(H) depletion (in words) [2]	further results
not enough to detect PARG inhibition	O=C(Nc1ccccc1)c1cc(Cl)cc(Cl)c1O [Compound 8h, 3,5-dichloro-2-hydroxy-N-benzamide]		
loss of detectable PARG inhibition	COc1c(Cl)cc(Cl)cc1C(=O)Nc1ccc(Oc2ccc3ccccc3c2)c(Cl)c1 [Compound 6f, 3,5-dichloro-N-(3-chloro-4-(naphthalen-2-yloxy)phenyl)-2-methoxybenzamide]		
loss of detectable inhibition of PARG	O=C(Nc1ccc(Oc2ccc3ccccc3c2)c(Cl)c1)c1cc(Cl)cc(Cl)c1 [Compound 6b, 3,5-dichloro-N-(3-chloro-4-(naphthalen-2-yloxy)phenyl)benzamide]	minimal effect	
complete loss of PARG inhibition	O=C(Nc1ccc(O)c(Cl)c1)c1cc(Cl)cc(Cl)c1O [Compound 8a, 3,5-dichloro-N-(3-chloro-4-hydroxyphenyl)-2-hydroxybenzamide]		
loss of detectable PARG inhibition	NC(=O)c1cc(Cl)cc(Cl)c1O [Compound 7, 3,5-dichloro-2-hydroxybenzamide]	minimal effect	
	O=C(Nc1ccc(Oc2ccc3ccccc3c2)c(Cl)c1)c1cc(Cl)cc(Cl)c1O [Compound 6a, 3,5-dichloro-N-(3-chloro-4-(naphthalen-2-yloxy)phenyl)-2-hydroxybenzamide]	partial inhibition of NAD(H) consumption	increase of PAR accumulation at 10 min ([3]; SCC-25 cells pre-incubated with 1mM compound, MNNG 5μg/mL (Figure 3B)): approximately 3 fold; inhibition of PARG in intact cells (in words) ([3]; SCC-25 cells, 1mM compound, MNNG 5μg/mL): nearly complete inhibition of PARG
PARG inhibition was retained	O=C(O)c1ccccc1C(=O)Nc1ccc(Oc2ccc3ccccc3c2)c(Cl)c1 [Compound 6g, 2-(3-chloro-4-(naphthalen-2-yloxy)phenylcarbamoyl)benzoic acid]		
loss of PARG inhibition	Oc1c(Cl)cc(Cl)cc1CNc1ccc(Oc2ccc3ccccc3c2)c(Cl)c1 [Compound 10, 2,4-dichloro-6-((3-chloro-4-(naphthalen-2-yloxy)phenylamino)methyl)phenol]		
	NC(=O)c1ccccc1 [Benzamide, benzamide, reference compound]	complete inhibition of NAD(H) depletion	inhibition of PARG (in words) (PARG [4]): does not inhibit PARG
loss of PARG inhibition	Oc1c(Cl)cc(Cl)cc1/C=N/c1ccc(Oc2ccc3ccccc3c2)c(Cl)c1 [Compound 9, 2,4-dichloro-6-((3-chloro-4-(naphthalen-2-yloxy)phenylimino)methyl)phenol]		
	Nc1ncnc2c1ncn2[C@@H]1O[C@H](COP(=O)(O)OP(=O)(O)OC[C@H]2NC[C@H](O)[C@@H]2O)[C@@H](O)[C@H]1O [ADP-HPD, adenosine 5′-diphosphate (hydroxymethyl) pyrrolidinediol]		inhibition of PARP-1 (in words) (PARP-1): does not inhibit PARP-1

SMILES	PARG inhibition (in words) (PARG [1])	inhibition of NAD(H) depletion (in words) [2]	further results
O=C(Nc1ccc(Cl)cc1)c1cc(Cl)cc(Cl)c1O [Compound 8d, 3,5-dichloro-N-(4-chlorophenyl)-2-hydroxybenzamide]	slight loss of potency	partial inhibition of NAD(H) consumption	
O=C(Nc1cccc(Cl)c1)c1cc(Cl)cc(Cl)c1O [Compound 8c, 3,5-dichloro-N-(3-chlorophenyl)-2-hydroxybenzamide]	PARG inhibition returned although at low potency		
O=C(Nc1ccccc1Cl)c1cc(Cl)cc(Cl)c1O [Compound 8b, 3,5-dichloro-N-(2-chlorophenyl)-2-hydroxybenzamide]	slight loss of potency		
